Legend:
[1] = tested on: DIO mice; assay: Systemic inflammation in DIO mice, oral gavage 14 days; assay type: in vivo; conditions: AdipoAI 25 mg/kg; for mRNA expression of IL-6 and IL-1β in WAT, spleen, bone marrow / serum levels of IL-6 and IL-1β: oral gavage 14 days, APR 50 mg/kg
Description: FIG. 3 AdipoAI decreases inflammation in DIO mice (n=6). DIO mice were orally gavaged with APR (50 mg/kg) or AdipoAI (25 mg/kg) for 14 days, and control animals (WT or DIO mice) were administered with equivalent volumes of DMSO. mRNA expression levels of pro-inflammatory cytokines in (a) WAT, (b) spleen and (c) bone marrow were measured by qRT-PCR and normalized to the level of β-actin mRNA. Data are expressed as mean±SEM. (d) Serum levels of IL-6 and IL-1β were measured by ELISA. Data are expressed as mean #SEM. Representative images of H&E (e) and IHC of F4/80 staining (f) of spleen tissue in DIO mice (n=6). Red arrow indicates multinucleated giant cells (megakaryocytes). One-way ANOVA test for multiple-group comparisons, * vs. WT-vehicle group, # vs. DIO-vehicle group. */#P<0.05, significant differences between each indicated group. ns, not significant.
The Ethics Committee on the Use and Care of Animals at Tufts University approved the study protocol (Boston, MA, USA). The animals received humane care according to the criteria outlined in the Guide for the Care and Use of Laboratory Animals prepared by the National Academy of Sciences and published by the National Institutes of Health. All experiments involving animals or animal tissue are reported in compliance with the guidelines of ARRIVE and BJP (Kilkenny et al., 2010; McGrath and Lilley, 2015). Experimental protocols and design adhere to BJP guidelines (Curtis et al., 2015). Wild-type (WT, C57BL/6J, Jax #000664), DIO (Jax #380050), and APN KO (Jax #008195) mice were purchased from the Jackson Laboratory. The DIO mice were fed with a high-fat diet (containing 60% kcal from fat; Jackson Laboratory) at 6 weeks of age and later. The WT mice were fed with ordinary diet as normal chow (NC)-fed mice, and APN KO mice were maintained and fed with an NC diet as previously described (Tu et al., 2011). For the LPS-induced endotoxemia model, male C57BL/6 mice aged 8 weeks received oral gavage with APR (50 mg/kg body weight) or AdipoAI (25 mg/kg body weight) for 24 h before by LPS (20 mg/kg body weight) treatment which was administered intraperitoneally whereas control animals were treated with equivalent volumes of normal PBS. Mouse survival in each group was monitored and recorded up to 84 h. All mice were killed at 1 h for detection of activation of inflammatory genes, at 6 h for determination of inflammatory factors in serum, and at 24 h for histological evaluation. Animal data were excluded from experiments based on pre-established criteria of visible abnormal tissue structure during sample harvest or other health issues, including fighting wounds.

[2] = tested on: DIO mice with experimental periodontitis; assay: Experimental periodontitis in DIO mice; assay type: in vivo; conditions: for numbers of osteoclasts on alveolar bone (TRAP stain): compared to vehicle-treated DIO mice; for IL-6 and CCL-2 gene expression in periodontal epithelium: compared to vehicle-treated group; for bodyweight / decrease in fasting blood glucose level: two weeks oral gavage, AdipoRon 50 mg/kg, AdipoAI 25 mg/kg, vs vehicle; for average alveolar bone loss at 6 sites (CEJ-ABC distance): two weeks, vehicle 372.3±27.3 μm
Description: FIG. 19 AdipoRon and AdipoAI attenuate experimental periodontitis in diet-induced obesity (DIO). (A) Bodyweight of vehicle, AdipoRon and AdipoAI-treated DIO mice with experimental periodontitis. (B) Fasting blood glucose in DIO mice with experimental periodontitis treated with vehicle, AdipoRon and AdipoAI. (C) A representative 3-dimensional model of alveolar bone in DIO mice with experimental periodontitis. […] The distance from ABC to CEJ in four groups is shown in (D) (n≥7). (E) Representative TRAP-stained alveolar bone in DIO mice with experimental periodontitis. Black arrow, osteoclast (scale bar=200 μm). The number of osteoclasts attached to the alveolar bone surface was calculated (F). (G) Relative expression of IL-6 and CCL2 genes in gingival tissue from DIO mice with experimental periodontitis was analyzed using real-time PCR. The animals were treated AdipoRon and AdipoAI or vehicle alone (n≥5).
DIO (C57BL/6J background, Jax #380050) were purchased from the Jackson Laboratory (Bar Harbor, ME, http://www.jax.org/). After acclimatization, animals were fed a high-fat diet (containing 60% kcal from fat, Jackson Laboratory) from 6 weeks of age onwards. Experimental periodontitis was induced in 20-week-old mice by 5-0 silk suture as described previously 26. Briefly, animals were anesthetized using ketamine/xylazine and buprenorphine and the sutures were placed around the maxillary second molar and tied on the palatal side for 2 weeks. The ethical approval of this study was provided by the IACUC of UCSD. The care and use of laboratory animals and Animal Research was performed in accordance with NIH guidelines.
AdipoRon (50 mg/kg body weight)^23, 24 and the AdipoAI (25 mg/kg body weight)^25 were administered by oral gavage concurrently with establishment of experimental periodontitis for 2 weeks.
Gingival tissues from the palatal side were sampled and immediately stored in liquid nitrogen until further analysis. The skulls were scanned by the Bruker Skyscan micro-CT system (Bruker, Kontich, Belgium). Alveolar bone loss, defined as the distance between the cementoenamel junction (CEJ) to the alveolar bone crest (ABC), was measured at six sites (mesio-buccal, mid-buccal, disto-buccal, mesio-palatal, mid-palatal, and disto-palatal) using Ctan software (http://bruker-microct.com/products/downloads.htm) as previously reported^26. Periodontal hard tissue sections were stained with Acid Phosphatase, Leukocyte (TRAP) Kit (Sigma, St. Louis, MO, USA) according to the manufacturer's instructions.
Total RNA was isolated from cell cultures and gingival soft tissues using TriZol reagent (Life Technologies, Carlsbad, CA, USA) according to the manufacturer's instructions^24. Reverse transcription was performed using the PrimeScript RT Master Mix (Takara Bio, Otsu, Japan) and real-time-qPCR analyses were performed using SYBR-Green Real-Time PCR Master Mix (Takara Bio, Otsu, Japan) as described earlier^27.

| SMILES | mRNA expression of IL-6 and IL-1β in WAT, spleen, bone marrow [1] | serum levels of IL-6 and IL-1β [1] | numbers of osteoclasts on alveolar bone (TRAP stain) [2] | IL-6 and CCL-2 gene expression in periodontal epithelium [2] | bodyweight [2] | decrease in fasting blood glucose level [2] [%] | average alveolar bone loss at 6 sites (CEJ-ABC distance) [2] [μm] | megakaryocytes and macrophages in spleen (H&E, IHC F4/80) ([1]; 14 days) |
| --- | --- | --- | --- | --- | --- | --- | --- | --- |
| O=C(COc1ccc(C(=O)c2ccccc2)cc1)NC1CCN(Cc2ccccc2)CC1 [AdipoRon, reference compound] | inhibited the expression levels of IL-6 and IL-1β | inhibited the expression levels of IL-6 and IL-1β | significantly decreased numbers of osteoclasts | significantly attenuated the IL-6 and CCL-2 gene expression | decreased significantly | 73.3 | 344.5±22.2 |  |
| COc1ccc(CN2CCC(NC(=O)COc3ccc(C(=O)c4ccc(Cl)cc4)cc3)CC2)cc1 [Compound 3] | inhibited mRNA expression of IL-6 (Il6) and IL-1β (Il1β) | reduced IL-6 and IL-1β levels in the serum | significantly decreased numbers of osteoclasts | significantly attenuated the IL-6 and CCL-2 gene expression | decreased significantly | 75.3 | 328.5±19.9 | decreased quantity of megakaryocytes and macrophages |
